Assay [1] deals with T1, Carboxypeptidase A1 (Bos taurus, UniProt P00730).
T1 sequence (P00730 whole entry): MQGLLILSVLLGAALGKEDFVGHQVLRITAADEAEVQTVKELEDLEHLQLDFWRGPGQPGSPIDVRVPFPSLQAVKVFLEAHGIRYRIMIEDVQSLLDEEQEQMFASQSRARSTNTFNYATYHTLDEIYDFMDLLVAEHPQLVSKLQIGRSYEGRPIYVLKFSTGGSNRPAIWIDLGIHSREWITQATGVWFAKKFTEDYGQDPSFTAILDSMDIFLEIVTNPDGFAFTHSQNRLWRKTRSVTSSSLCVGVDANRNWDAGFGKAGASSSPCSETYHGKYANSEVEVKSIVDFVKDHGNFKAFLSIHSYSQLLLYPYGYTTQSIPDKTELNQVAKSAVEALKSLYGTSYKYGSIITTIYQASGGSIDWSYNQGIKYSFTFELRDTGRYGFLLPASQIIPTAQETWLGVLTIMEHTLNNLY
Description: Inhibition of bovine pancreatic carboxypeptidase A by microtiter plate method.

Assay [2] concerns the target T2, Carboxypeptidase B (Homo sapiens, UniProt P15086).
T2 sequence (P15086 whole entry): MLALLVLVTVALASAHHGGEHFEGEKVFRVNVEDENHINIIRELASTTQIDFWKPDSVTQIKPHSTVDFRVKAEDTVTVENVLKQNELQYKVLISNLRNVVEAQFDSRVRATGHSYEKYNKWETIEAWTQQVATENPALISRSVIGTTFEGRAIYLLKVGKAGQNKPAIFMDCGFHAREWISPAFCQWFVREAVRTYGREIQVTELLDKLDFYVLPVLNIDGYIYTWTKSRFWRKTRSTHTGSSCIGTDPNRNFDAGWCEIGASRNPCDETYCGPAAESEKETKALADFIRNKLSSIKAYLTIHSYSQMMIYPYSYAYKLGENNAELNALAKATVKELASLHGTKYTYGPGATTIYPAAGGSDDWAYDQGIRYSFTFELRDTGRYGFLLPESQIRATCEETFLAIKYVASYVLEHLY
Description: Inhibition of human recombinant carboxypeptidase B expressed in Saccharomyces cerevisiae by microtiter plate method.

Usually Ki stands for the equilibrium dissociation constant of an inhibitor or competing ligand from its target. Consider `COC(=O)[C@H]1CC[C@H]1NC(=O)[C@H]1CC[C@H]1NC(=O)OCc1ccccc1`, for which the Ki in assay [1] was determined as 67 µM; in assay [2], 70 µM.
Taken in the same sequence, the figures for `COC(=O)[C@@H]1CC[C@@H]1NC(=O)[C@@H]1CC[C@@H]1NC(=O)OCc1ccccc1` were 95 µM and 275 µM.
For `O=C(O)CCNC(=O)[C@@H]1CC[C@@H]1NC(=O)OCc1ccccc1`, the Ki in assay [1] turned out to be 70 µM; in assay [2] it was 43 µM.
On the same counts, the results for `COC(=O)CCCCNC(=O)[C@H]1CC[C@H]1NC(=O)OCc1ccccc1` are 72.5 µM and 410 µM.
Consider `COC(=O)CCNC(=O)[C@@H]1CC[C@@H]1NC(=O)OCc1ccccc1`, for which the Ki in assay [1] is 180 µM; in assay [2], 400 µM.
For the compound `COC(=O)CNC(=O)[C@@H]1CC[C@@H]1NC(=O)OCc1ccccc1`, the Ki in assay [1] was 550 µM; in assay [2], 500 µM.

The values above are taken from ChEMBL document CHEMBL1137763, “Cyclobutane-containing peptides: evaluation as novel metallocarboxypeptidase inhibitors and modelling of their mode of action” (Bioorg Med Chem, 2009).
